The values that follow come from PubChem BioAssay AID1996.

SMILES strings stand for the structures. Values after ≈ are worked out from the molar mass of the structure shown.

For the series the following is noted: buffer; pH 7.4; 200.0 µM.
As for `Cc1onc(-c2ccccc2Cl)c1C(=O)N1CCCCC1`, the solubility (kinetic) is > 45.7 µg/mL.

The compound `Cc1nc([N+](=O)[O-])cn1CC(=O)Nc1ccc(Cl)cc1` showed a kinetic solubility of 6.1 µg/mL (≈ 20.7 µM).

In the case of `CCCc1cc(=O)[nH]c(NCCc2ccccc2)n1`, the kinetic solubility is > 38.6 µg/mL.

For the compound `CC(=NCCC1=CCCCC1)c1c(O)n(-c2ccccc2)c(=O)[nH]c1=O`, the kinetic solubility came to 10 µg/mL (≈ 28.3 µM).

In turn, `NS(=O)(=O)c1ccc(NC(=O)COC(=O)CCCN2C(=O)c3cccc4cccc(c34)C2=O)cc1` came in with a solubility (kinetic) of 8.8 µg/mL (≈ 17.8 µM).

In the case of `N=c1oc2ccccc2cc1C(=O)Nc1cccc(F)c1`, the kinetic solubility amounted to 0.3 µg/mL (≈ 1.06 µM).

For `CCOc1ccccc1C(=O)N(C)CC(=O)Nc1ccc(OC)cc1`, the kinetic solubility was > 51.4 µg/mL.

As for `COc1ccc(S(=O)(=O)N2CCC(C(=O)Oc3cccc(C)c3)CC2)cc1OC`, the solubility (kinetic) is < 0.9 µg/mL.

The compound `CC(C)n1c(/N=C/c2ccccc2O)nc2ccccc21` yielded a solubility (kinetic) of 31.4 µg/mL (≈ 112 µM).

On to `Cl.NC(Cc1ccccc1)c1nc2ccccc2[nH]1` (stereo not given), for which the kinetic solubility worked out at 40.3 µg/mL.

Take `CC1CCCC(NC(=O)COC(=O)COc2ccc(C#N)cc2)C1C` (stereo not given): the kinetic solubility was determined as 45.4 µg/mL (≈ 132 µM).

Take `CN1C2CCC1CC(NC(=O)c1ccc(Cl)cc1)C2` (stereo not given): the kinetic solubility is > 41.8 µg/mL.

Take `OCC1(CO)COC(c2ccccc2)=N1`: the kinetic solubility is > 31.1 µg/mL.

For `Cc1ccsc1C(=O)NCC(=O)OCc1ccccc1`, the kinetic solubility is > 43.4 µg/mL.

In turn, `O=Cc1c(Nc2cccc(C(F)(F)F)c2)nc2ccccn2c1=O` returned a kinetic solubility of 1.7 µg/mL (≈ 5.1 µM).

As to `Nc1c(N(CCO)C(=O)C2CCCC2)c(=O)[nH]c(=O)n1Cc1ccccc1`, the kinetic solubility is > 55.9 µg/mL.

For `O=C(Cc1ccc([N+](=O)[O-])cc1)N1CCN(c2ccc([N+](=O)[O-])cc2)CC1`, the kinetic solubility stood at 5.2 µg/mL (≈ 14 µM).

In the case of `Cc1ccc(-c2cn3cccnc3n2)cc1`, the solubility (kinetic) was > 31.4 µg/mL.

On to `CC(C)C(NS(=O)(=O)c1cccc(C(F)(F)F)c1)C(=O)O` (stereo not given), for which the solubility (kinetic) was > 48.8 µg/mL.

For the compound `COc1ccc(C(CCNCc2ccc(OC(C)C)cc2)C(C)C)cc1` (stereo not given), the solubility (kinetic) came out at 49.4 µg/mL (≈ 139 µM).

Regarding `N#Cc1ccc(C(=O)CSc2n[nH]c(=O)n2-c2cccnc2)cc1`, the solubility (kinetic) is > 50.6 µg/mL.

Regarding `COc1ccc(CCNC2CCC(c3ccccc3)CC2)cc1` (stereo not given), the solubility (kinetic) was > 46.4 µg/mL.

Take `N#CCc1ccc(OC(=O)c2cccnc2Cl)cc1`: the kinetic solubility was > 40.9 µg/mL.

For the compound `CCCCOC(=O)c1ccc(OC(=O)N2CCOCC2)cc1`, the kinetic solubility is > 46.1 µg/mL.

Turning to `CCc1cccc(C)c1NC(=O)CCOc1ccccc1`, the kinetic solubility stood at 10.9 µg/mL (≈ 38.5 µM).

`CC(C)c1ccc2nc(N)sc2c1`: the kinetic solubility came out at 28.3 µg/mL (≈ 147 µM).

Turning to `O=C(NCCS(=O)(=O)N1CCCCC1)c1ccccc1`, the kinetic solubility was > 44.5 µg/mL.

As to `CN(C)CC#CCC(O)(c1ccccc1)c1ccccc1`, the solubility (kinetic) is > 41.9 µg/mL.

With `CCc1cc2cc(C)cc(C)c2nc1Cl`, the kinetic solubility was < 0.5 µg/mL.

Take `Clc1cc(NC2CCCCC2)ncn1`: the solubility (kinetic) is > 31.8 µg/mL.

As for `CC(C)n1c(NCCO)nc2ccccc21`, the kinetic solubility is > 32.9 µg/mL.

For `Cc1cccc(N2CCN(CC3CCCCC3)CC2)c1C`, the solubility (kinetic) was determined as 2.9 µg/mL (≈ 10.1 µM).

For `O=C(NC1CCN(C(=S)Nc2ccccc2)CC1)C1CCCCC1`, the solubility (kinetic) was 2.1 µg/mL (≈ 6.08 µM). This solubility kinetic and that of the compound before are within 1.5-fold of each other.

Compound `Br.C(CCCN1CCCCC1)CCN1CCCCC1` displayed a solubility (kinetic) of 61.8 µg/mL.

On to `COc1ccc(CNC(=S)NCc2ccc(F)cc2)cc1OC`, for which the kinetic solubility is > 50.2 µg/mL.

Regarding `CC(=O)c1sc(Nc2cccc(C)c2)nc1C`, the kinetic solubility stood at 3 µg/mL (≈ 12.2 µM).

Take `Cc1ccc(NC(=O)CCC(=O)NNC(=O)C(C)(C)C)c(C)c1`: the solubility (kinetic) was > 47.9 µg/mL.

Take `CC(C)(C)c1ccc(Oc2ccc(NC(=O)c3ccco3)cn2)cc1`: the solubility (kinetic) was < 0.4 µg/mL.

Consider `COc1ccccc1NC(=S)NC1CCCC1`, for which the solubility (kinetic) amounted to 35.9 µg/mL (≈ 143 µM).

As to `Cc1ccccc1NC(=O)CN1C(=O)c2ccccc2C1=O`, the kinetic solubility is 8.5 µg/mL (≈ 28.9 µM).

`CCOC(=O)c1nc(Nc2cccc(C)c2)c2ccccc2n1` yielded a kinetic solubility of 10.8 µg/mL (≈ 35.1 µM). The solubility kinetic values of the last two compounds are within 1.5-fold of each other.

On to `O=C(Nc1ccccc1C(=O)NCCCN1CCOCC1)c1ccc(F)cc1`, for which the kinetic solubility is 55.4 µg/mL (≈ 144 µM).

Compound `CC(=O)c1sc(NC(=O)c2ccc(Cl)cc2)nc1C` had a kinetic solubility of 0.5 µg/mL (≈ 1.7 µM). This solubility kinetic lies about 110-fold lower than the previous one.

As to `COCCNC(=S)N(CCc1c(C)[nH]c2ccccc12)Cc1ccco1`, the solubility (kinetic) was determined as 27.9 µg/mL (≈ 75.1 µM).

For `O=C(Nc1ccc(F)cc1)N1CCCCCC1`, the kinetic solubility was > 35.4 µg/mL.

Regarding `COc1ccc(CCN(C)C2CCCN(S(C)(=O)=O)C2)cc1OC` (stereo not given), the kinetic solubility is > 53.5 µg/mL.

`COc1ccc(C(=O)CC(=O)C(=O)Nc2cccc(F)c2)cc1` yielded a kinetic solubility of 19 µg/mL (≈ 60.3 µM).

In the case of `O=S(=O)(c1ccc(Cl)cc1)N1CCNCC1`, the solubility (kinetic) is > 39.1 µg/mL.

Take `O=C(NC1CC(=O)c2sccc21)c1cccc(C(F)(F)F)c1` (stereo not given): the solubility (kinetic) is > 48.8 µg/mL.

In the case of `O=C(Nc1ccncc1)Nc1cccc(Cl)c1`, the solubility (kinetic) turned out to be 35.9 µg/mL (≈ 145 µM).

Take `Cc1ccc(C(C)C)c(OCC(O)CNC2CCCC2)c1.Cl` (stereo not given): the solubility (kinetic) is > 49.2 µg/mL.

In the case of `Cc1cc(C)cc(OCCCn2ccnc2)c1`, the kinetic solubility was 26.4 µg/mL (≈ 115 µM).

As for `COc1cc(OC)cc(C(=O)NC(C(=O)NCCc2ccccn2)C(C)C)c1` (stereo not given), the kinetic solubility is > 57.8 µg/mL.

With `CC(C)(C)OC(=O)NCCNC(=O)c1cccs1`, the solubility (kinetic) is > 40.6 µg/mL.

In the case of `Cc1cccc(C)c1OCC(=O)Nc1c(C)nn(C)c1C`, the solubility (kinetic) is > 43.1 µg/mL.

`CCCn1ccc(O)c(Cc2ccc(Cl)cc2)c1=O`: the kinetic solubility was 7.3 µg/mL (≈ 26.3 µM).

With `CN1C(=O)C(O)N=C(c2ccccc2)c2ccccc21` (stereo not given), the solubility (kinetic) was > 39.9 µg/mL.

`COc1ccc(NC(=O)c2oc3ccccc3c2C)cn1` displayed a kinetic solubility of 4 µg/mL (≈ 14.2 µM).

Take `Cc1cc(C(=O)O)ccc1N=Cc1c(O)ccc2ccccc12`: the solubility (kinetic) is > 45.8 µg/mL.

Consider `O=C(NNC(=O)C1CCC1)c1ccccc1`, for which the kinetic solubility was > 32.7 µg/mL.

As for `O=C(/C=C/c1c(Cl)cccc1Cl)NCCCn1ccnc1`, the kinetic solubility was determined as 46.1 µg/mL (≈ 142 µM).

In turn, `COc1ccccc1NC(=O)NCCCCc1ccccc1` showed a solubility (kinetic) of 5.3 µg/mL (≈ 17.8 µM). Compared with the last compound, the solubility kinetic is about 8.7-fold lower.

`O=C(c1ccc(Cl)cc1)N1CCc2ccccc21` returned a solubility (kinetic) of 7.2 µg/mL (≈ 27.9 µM).

In turn, `CCOC(=O)C1(Cc2ccccc2C)CCCN(C(=O)COC)C1` (stereo not given) showed a kinetic solubility of 35.6 µg/mL (≈ 107 µM).

In the case of `O=C(COC(=O)CCC(=O)c1cccs1)NCc1cccs1`, the kinetic solubility is > 50.6 µg/mL.

For the compound `O=C(COc1ccccc1[N+](=O)[O-])Nc1cccc(S(=O)(=O)N2CCCC2)c1`, the kinetic solubility is 3.5 µg/mL (≈ 8.63 µM).

For the compound `CCC(=Nc1cccc(C(F)(F)F)c1)c1c(O)n(C)c(=O)n(C)c1=O`, the kinetic solubility worked out at 6.4 µg/mL (≈ 18 µM). Against the preceding compound, the solubility kinetic is about 1.8-fold higher.

For the compound `COc1ccc(Nc2ccc(C(N)=O)cc2[N+](=O)[O-])cc1`, the solubility (kinetic) amounted to 14.3 µg/mL (≈ 49.8 µM). This solubility kinetic is about 2.2-fold higher than that of the compound before.

As to `O=C(Oc1ccc(Cl)cc1)N1CCOCC1`, the solubility (kinetic) is > 36.3 µg/mL.

`Cc1ccccc1CN(C)C(C)C(=O)NCc1ccccc1` (stereo not given) yielded a solubility (kinetic) of 37.1 µg/mL (≈ 125 µM).

Compound `Cc1ccc(NC(=O)Cn2cnc3cc([N+](=O)[O-])ccc3c2=O)cc1` returned a solubility (kinetic) of 3.9 µg/mL (≈ 11.5 µM).

Compound `O=C1Nc2ccc(Cl)cc2C12OCCCO2` came in with a kinetic solubility of 3.2 µg/mL (≈ 13.4 µM).

Take `Cc1ccc(S(=O)(=O)N2CCOCC2)cc1C(=O)OCC(=O)c1c(N)n(C)c(=O)n(C)c1=O`: the solubility (kinetic) was determined as 38.9 µg/mL (≈ 81 µM).

Turning to `COc1ccccc1C(=O)NC(=O)COC(=O)c1nccnc1N`, the kinetic solubility was > 49.5 µg/mL.

As for `CC1(C)C(=O)Nc2ccccc2N1C(=O)COC(=O)c1cccnc1Cl`, the solubility (kinetic) is > 56.1 µg/mL.
